Structures can show the parent of a compound that is named as a salt. Where two headings read alike, the source gives them in different places.
System: Acinetobacter baumannii ATCC 17978
Assay: Antimicrobial susceptibility testing: 90% growth inhibitory concentration (IC90) determination
Type: cell-based
Conditions: 90% growth inhibitory concentration, Acinetobacter baumannii ATCC17978, Iso-Sensitest broth, OD 600 nm over 16h, read-out: ATCC17978 IC90
Outline: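 Compounds serially twofold diluted (e.g. 50 to 0.097 μM final) in Iso-Sensitest broth, inoculated at ~5×10^(5) CFU/ml, incubated at 35±2° C. OD600 read every 20 minutes over 16h. IC90 taken as concentration inhibiting 90% of growth during logarithmic phase.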

[1] = Acinetobacter baumannii, ATCC17978, 16 h

| IC90 [1] | SMILES | IC90 |
| --- | --- | --- |
| 0.5 µM | CCc1cc(Nc2nccn3c(-c4ccc(OC)c(F)c4F)cnc23)ccc1C(=O)N[C@@H](CC)CN [Example 489, N-[(1S)-1-(aminomethyl)propyl]-4-[[3-(2,3-difluoro-4-methoxy-phenyl)imidazo[1,2-a]pyrazin-8-yl]amino]-2-ethyl-benzamide; formic acid] |  |
| 5.1 µM | Cc1cc(Nc2nccn3c(-c4ccc(OC(F)F)cc4)cnc23)ccc1C(=O)NCCN [Example 266, N-(2-aminoethyl)-4-[[3-[4-(difluoromethoxy)phenyl]im-idazo[1,2-a]pyrazin-8-yl]amino]-2-methylbenzamide;hydrochlo-ride] |  |
| 0.08 µM | Cc1cc(Nc2nccn3c(-c4ccc(OCC#N)c(F)c4F)cnc23)ccc1C(=O)NCCCNC(=O)[C@@H]1C[C@](C)(O)CN1 [Example 134, (2S,4S)-N-[3-[[4-[[3-[4-(cyanomethoxy)-2,3-difluoro-phenyl]imidazo[1,2-a]pyrazin-8-yl]amino]-2-methyl-benzoyl]amino]propyl]-4-hydroxy-4-methyl-pyrrolidine-2-carboxamide formate] |  |
| 1.1 µM | CCc1cc(Nc2nccn3c(-c4ccc(OC)c(F)c4F)cnc23)ccc1C(=O)NCCN1CCC[C@H](N)C1=O [Example 347, N-[2-[(3S)-3-amino-2-oxopiperidin-1-yl]ethyl]-4-[[3-(2,3-difluoro-4-methoxyphenyl)imidazo[1,2-a]pyrazin-8-yl]amino]-2-ethylbenzamide] |  |
|  | COc1ccc(-c2cnc3c(Nc4ccc(C(=O)NCCCN)c(C(F)F)c4)nccn23)c(F)c1F [Example 165, N-(3-aminopropyl)-4-[[3-(2,3-difluoro-4-methoxy-phenyl)imidazo[1,2-a]pyrazin-8-yl]amino]-2-(difluoromethyl)benzamide; formic acid] | 0.53 µM |
| 0.12 µM | CNC(=O)c1ccc(Nc2nccn3c(-c4ccc(OC)cc4)cnc23)cc1C [Example 14, 4-((3-(4-methoxyphenyl)imidazo [1,2-a]pyrazin-8-yl)amino)-N,2-dimethylbenzamide] |  |
| 0.05 µM | CCc1cc(Nc2nccn3c(-c4ccc(OC)c(F)c4F)cnc23)ccc1C(=O)NCCCn1ccnc1 [Example 290, 4-[[3-(2,3-difluoro-4-methoxyphenyl)imidazo[1,2-a]pyrazin-8-yl]amino]-2-ethyl-N-(3-imidazol-1-ylpropyl)benzamide] |  |
|  | Cc1cc(Nc2nccn3c(-c4ccc(Cl)cc4)cnc23)ccc1C(=O)NCCCN [Example 236, N-(3-aminopropyl)-4-[[3-(4-chlorophenyl)imidazo[1,2-a]pyrazin-8-yl]amino]-2-methylbenzamide; hydrochloride] | 1.4 µM |
| 0.64 µM | COc1ccc(-c2cnc3c(Nc4ccc(C(=O)N(C)CC(=O)N5CCNC(=O)C5)c(C)c4)nccn23)cc1F [Example 6] |  |
| 2.9 µM | Cc1cc(Nc2nccn3c(-c4ccc(Cl)c(F)c4F)cnc23)ccc1C(=O)NCC1CCNCC1 [Example 253, 4-[[3-(4-chloro-2,3-difluorophenyl)imidazo[1,2-a]pyrazin-8-yl]amino]-2-methyl-N-(piperidin-4-ylmethyl)benzamide; hydrochlo-ride] |  |
| 0.25 µM | CCc1cc(Nc2nccn3c(-c4ccc(OC)c(F)c4Cl)cnc23)ccc1C(=O)NCCNC(=O)[C@H](N)CCCNC(=N)N [Example 129, N-[2-[[(2R)-2-amino-5-guanidino-pentanoyl]amino]ethyl]-4-[[3-(2-chloro-3-fluoro-4-methoxy-phenyl)imidazo[1,2-a]pyrazin-8-yl]amino]-2-ethyl-benzamide formate] |  |
| 0.14 µM | Cn1ccc(CNC(=O)c2ccc(Nc3nccn4c(-c5ccc(OCC#N)c(F)c5F)cnc34)cc2Cl)cc1=O [Example 86, 2-chloro-4-[[3-[4-(cyanomethoxy)-2,3-difluoro-phenyl]imidazo[1,2-a]pyrazin-8-yl]amino]-N-[(1-methyl-2-oxo-4-pyridyl)methyl] benzamide] |  |
| 0.1 µM | CCc1cc(Nc2nccn3c(-c4ccc(OC)c(F)c4F)cnc23)ccc1C(=O)NCCCCCc1nnc2ccccn12 [Example 533, N-(5-([1,2,4]triazolo[4,3-a]pyridin-3-yl)pentyl)-4-((3-(2,3-difluoro-4-methoxyphenyl)imidazo[1,2-a]pyrazin-8-yl)amino)-2-ethylbenzamide] |  |
| 0.15 µM | CCc1cc(Nc2nccn3c(-c4ccc(OC(F)F)c(F)c4F)cnc23)ccc1C(=O)NCC1CCNC1 (centres unmarked) [Example 550, 4-[[3-[4-(difluoromethoxy)-2,3-difluorophenyl]imidazo[1,2-a]pyrazin-8-yl]amino]-2-ethyl-N-(pyrrolidin-3-ylmethyl)benzamide; formic acid] |  |
| 2 µM | COc1ccc(-c2cnc3c(Nc4ccc(C(=O)N(C)CC(=O)N5CCOCC5)c(C)c4)nccn23)cc1F [Example 8, 4-[[3-(3-fluoro-4-methoxy-phenyl)imidazo[1,2-a]pyrazin-8-yl]amino]-N,2-dimethyl-N-(2-morpholino-2-oxo-ethyl)benzamide] |  |
| 0.41 µM | CCc1cc(Nc2nccn3c(-c4ccc(OC)c(F)c4F)cnc23)ccc1C(=O)NC[C@H](C)NC(=O)[C@@H](N)CCCNC(=N)N [Example 123, N-[(2S)-2-[[(2S)-2-amino-5-guanidino-pentanoyl]amino]propyl]-4-[[3-(2,3-difluoro-4-methoxy-phenyl)imidazo[1,2-a]pyrazin-8-yl]amino]-2-ethyl-benzamide formate] |  |
| 0.45 µM | CCN(C(=O)NCCCN(C)C)C(=O)c1ccc(Nc2nccn3c(-c4ccc(OCC#N)c(F)c4F)cnc23)cc1Cl [REF 149, 2-chloro-4-[[3-[4-(cyanomethoxy)-2,3-difluoro-phenyl]imidazo[1,2-a]pyrazin-8-yl]amino]-N-[3-(dimethylamino)propylcarbamoyl]-N-ethyl-benzamide] |  |
| 0.93 µM | COc1ccc(-c2cnc3c(Nc4ccc(C(=O)NCCC5(O)CCNCC5)c(C)c4)nccn23)cc1F [Example 281, 4-[[3-(3-fluoro-4-methoxyphenyl)imidazo[1,2-a]pyrazin-8-yl]amino]-N-[2-(4-hydroxypiperidin-4-yl)ethyl]-2-methylbenzamide;2,2,2-trifluoroacetic acid] |  |
| 0.25 µM | CCc1cc(Nc2nccn3c(-c4ccc(OC)c(F)c4F)cnc23)ccc1C(=O)NCC(=O)NCCN(C)C [Example 434, 4-[[3-(2,3-difluoro-4-methoxy-phenyl)imidazo[1,2-a]pyrazin-8-yl]amino]-N-[2-[2-(dimethylamino)ethylamino]-2-oxo-ethyl]-2-ethyl-benzamide; formic acid] |  |
| 0.3 µM | CCc1cc(Nc2nccn3c(-c4ccc(Oc5ccncn5)c(F)c4F)cnc23)ccc1C(=O)NCCCNC(=O)NCCNCCCN [Example 565, N-[3-[2-(3-aminopropylamino)ethylcar-bamoylamino]propyl]-4-[[3-(2,3-difluoro-4-pyrimidin-4-yloxy-phenyl)imidazo[1,2-a]pyrazin-8-yl]amino]-2-ethyl-benzamide; formic acid] |  |
| 1.3 µM | COc1ccc(-c2cnc3c(Nc4ccc(C(=O)NCC5CNCCO5)c(Cl)c4)nccn23)cc1F (centres unmarked) [Example 233, 2-chloro-4-[[3-(3-fluoro-4-methoxyphenyl)imidazo[1,2-a]pyrazin-8-yl]amino]-N-(morpholin-2-ylmethyl)benzamide; hydrochlo-ride] |  |
| 0.27 µM | CCc1cc(Nc2nccn3c(-c4ccc(OC)c(F)c4F)cnc23)ccc1C(=O)NCCC1CCN(CCC(=O)O)CC1 [Example 301, 3-[4-[2-[[4-[[3-(2,3-difluoro-4-methoxyphenyl)imidazo[1,2-a]pyrazin-8-yl]amino]-2-ethylbenzoyl]amino]ethyl]piperidin-1-yl]propanoic acid] |  |
| 2.9 µM | CCc1cc(Nc2nccn3c(-c4ccc(OCC#CCN)c(F)c4F)cnc23)ccc1C(=O)NCCCN [Example 287, 4-[[3-[4-(4-aminobut-2-ynoxy)-2,3-difluorophenyl]imidazo[1,2-a]pyrazin-8-yl]amino]-N-(3-aminopropyl)-2-ethylbenzamide] |  |
| 0.24 µM | CCc1cc(Nc2nccn3c(-c4ccc(OC)c(F)c4F)cnc23)ccc1C(=O)N[C@H](C)CN [Example 101, (R)-N-(1-aminopropan-2-yl)-4-((3-(2,3-difluoro-4-methoxyphenyl)imidazo [1,2-a]pyrazin-8-yl)amino)-2-ethylbenzamide dihydrochloride] |  |
| 0.81 µM | COc1ccc(-c2cnc3c(Nc4ccc(C(=N)OCC(=N)N(C)C)c(C)c4)nccn23)cc1 [Example 16] |  |
| 0.12 µM | CCc1cc(Nc2nccn3c(-c4ccc(OC(F)F)c(F)c4F)cnc23)ccc1C(=O)NCCCO [Example 293, 4-[[3-[4-(difluoromethoxy)-2,3-difluorophenyl]imidazo[1,2-a]pyrazin-8-yl]amino]-2-ethyl-N-(3-hydroxypropyl)benzamide] |  |
| 0.1 µM | CCc1cc(Nc2nccn3c(-c4ccc(OC)c(F)c4F)cnc23)ccc1C(=O)NCCCNC(=O)[C@@H](N)CCNC(=N)N [Example 367, N-[3-[[(2S)-2-amino-4-carbamimidamidobutanoyl]amino]propyl]-4-[[3-(2,3-difluoro-4-methoxyphenyl)imidazo[1,2-a]pyrazin-8-yl]amino]-2-ethylbenzamide;formic acid] |  |
| 0.17 µM | CCc1cc(Nc2nccn3c(-c4ccc(OC)c(F)c4F)cnc23)ccc1C(=O)NCC1CCN(C(=N)N)CC1 [Example 298, N-[(1-carbamimidoylpiperidin-4-yl)methyl]-4-[[3-(2,3-difluoro-4-methoxyphenyl)imidazo[1,2-a]pyrazin-8-yl]amino]-2-ethylbenzamide] |  |
| 0.64 µM | CCc1cc(Nc2nccn3c(-c4ccc(OC(F)F)cc4)cnc23)ccc1C(=O)NCCN1CCNCC1 [Example 212, 4-[[3-[4-(difluoromethoxy)phenyl]im-idazo[1,2-a]pyrazin-8-yl]amino]-2-ethyl-N-(2-piperazin-1-ylethyl)benzamide;hydrochlo-ride] |  |
